From ChEMBL document CHEMBL3865829 (Eur J Med Chem, 2016)

Assays:
[1] = Antitumor activity against human Bel7404 cells xenografted in BALB/c nude mouse assessed as tumor volume at 50 mg/kg, ig administered via oral gavage once daily for 14 consecutive days measured on day 10 (reference value: 425.92 +/- 102.32 mm3); assay type: functional, BEL-7404
[2] = Antitumor activity against human Bel7404 cells xenografted in BALB/c nude mouse assessed as tumor volume at 50 mg/kg, ig administered via oral gavage once daily for 14 consecutive days measured on day 14 (reference value: 589.54 +/- 162.22 mm3); assay type: functional, BEL-7404
[3] = Antitumor activity against human Bel7404 cells xenografted in BALB/c nude mouse assessed as tumor volume at 50 mg/kg, ig administered via oral gavage once daily for 14 consecutive days measured on day 3 (reference value: 176.17 +/- 57.63 mm3); assay type: functional, BEL-7404
[4] = Antitumor activity against human Bel7404 cells xenografted in BALB/c nude mouse assessed as tumor volume at 50 mg/kg, ig administered via oral gavage once daily for 14 consecutive days measured on day 7 (reference value: 284.68 +/- 74.36 mm3); assay type: functional, BEL-7404
[5] = Antitumor activity against human Bel7404 cells xenografted in BALB/c nude mouse assessed as tumor growth inhibition at 50 mg/kg, ig administered via oral gavage once daily for 14 consecutive days measured on day 29; assay type: functional; settings: BEL-7404, po, 696 h, read-out: TGI
[6] = Antitumor activity against human Bel7404 cells xenografted in BALB/c nude mouse assessed as tumor volume at 50 mg/kg, ig administered via oral gavage once daily for 14 consecutive days measured on day 17 (reference value: 747.40 +/- 169.75 mm3); assay type: functional, BEL-7404
[7] = Antitumor activity against human Bel7404 cells xenografted in BALB/c nude mouse assessed as tumor volume at 50 mg/kg, ig administered via oral gavage once daily for 14 consecutive days measured on day 1 (reference value: 101.62 +/- 26.48 mm3); assay type: functional, BEL-7404
[8] = Antitumor activity against human Bel7404 cells xenografted in BALB/c nude mouse assessed as tumor growth inhibition at 10 mg/kg, ig administered via oral gavage once daily for 14 consecutive days measured on day 29; assay type: functional; settings: BEL-7404, po, 696 h, read-out: TGI
[9] = Antitumor activity against human A549 cells xenografted in BALB/c nude mouse assessed as tumor volume at 10 mg/kg, ig administered via oral gavage once daily for 14 consecutive days measured on day 8 (reference value: 840.07 +/- 205.19 mm3); assay type: functional
[10] = Half life in Sprague-Dawley rat at 20 mg/kg administered via oral gavage as single dose by LCMS analysis; assay type: ADME, organism-based; settings: in vivo
Mus musculus [11] = test: Toxicity in nude BALB/c mouse xenografted with human A549 cells assessed as body weight at 10 mg/kg, ig administered via oral gavage once daily for 14 consecutive days measured on day 1 (reference value: 24.38 +/- 0.76 g); assay type: organism-based; settings: in vivo
[12] = Antitumor activity against human Bel7404 cells xenografted in BALB/c nude mouse assessed as tumor volume at 10 mg/kg, ig administered via oral gavage once daily for 14 consecutive days measured on day 10 (reference value: 425.92 +/- 102.32 mm3); assay type: functional, BEL-7404
A549 [13] = test: Inhibition of mTORC2 in human A549 cells assessed as reduction in AKT phosphorylation at serine473 residues after 30 mins by Western blot analysis; assay type: cell-based
[14] = AUC (0 to infinity) in Sprague-Dawley rat at 20 mg/kg administered via oral gavage as single dose by LCMS analysis; assay type: ADME, organism-based; parameters: dose 20 mg/kg, route oral, time infinity; settings: in vivo
[15] = Cytotoxicity against human A549 cells after 72 hrs by MTT assay; assay type: functional, cell-based; settings: A549, 72 h
Mus musculus [16] = test: Toxicity in nude BALB/c mouse xenografted with human A549 cells assessed as body weight at 10 mg/kg, ig administered via oral gavage once daily for 14 consecutive days measured on day 4 (reference value: 24.77 +/- 0.93 g); assay type: organism-based; settings: in vivo
[17] = Antitumor activity against human Bel7404 cells xenografted in BALB/c nude mouse assessed as tumor volume at 10 mg/kg, ig administered via oral gavage once daily for 14 consecutive days measured on day 3 (reference value: 176.17 +/- 57.63 mm3); assay type: functional, BEL-7404
[18] = Antitumor activity against human A549 cells xenografted in BALB/c nude mouse assessed as tumor volume at 10 mg/kg, ig administered via oral gavage once daily for 14 consecutive days measured on day 1 (reference value: 156.87 +/- 22.32 mm3); assay type: functional
[19] = Antitumor activity against human Bel7404 cells xenografted in BALB/c nude mouse assessed as tumor volume at 10 mg/kg, ig administered via oral gavage once daily for 14 consecutive days measured on day 7 (reference value: 284.68 +/- 74.36 mm3); assay type: functional, BEL-7404
[20] = Oral bioavailability in Sprague-Dawley rat at 20 mg/kg administered via gavage as single dose by LCMS analysis; assay type: ADME, organism-based; settings: in vivo
[21] = Cmax in Sprague-Dawley rat at 20 mg/kg administered via oral gavage as single dose by LCMS analysis; assay type: ADME, organism-based; parameters: dose 20 mg/kg, route oral; settings: in vivo
[22] = Antitumor activity against human A549 cells xenografted in BALB/c nude mouse assessed as tumor volume at 10 mg/kg, ig administered via oral gavage once daily for 14 consecutive days measured on day 11 (reference value: 1327.66 +/- 404.92 mm3); assay type: functional
[23] = Antitumor activity against human A549 cells xenografted in BALB/c nude mouse assessed as tumor volume at 10 mg/kg, ig administered via oral gavage once daily for 14 consecutive days measured on day 15 (reference value: 2071.51 +/- 682.84 mm3); assay type: functional
[24] = Potency index, ratio of camptothecin GI50 to compound GI50 against human NCI60 cells; assay type: functional
[25] = Potency index, ratio of paclitaxel GI50 to compound GI50 against human NCI60 cells; assay type: functional
cells = settings: Homo sapiens, HCT-116, 72 h
[26] = Time at which maximum plasma concentration stays above in vitro IC50 for human A549 cells in Sprague-Dawley rat at 20 mg/kg, po administered as single dose; assay type: ADME, organism-based; settings: in vivo
Mus musculus [27] = test: Toxicity in nude BALB/c mouse xenografted with human A549 cells assessed as body weight at 10 mg/kg, ig administered via oral gavage once daily for 14 consecutive days measured on day 11 (reference value: 26.11 +/- 1.06 g); assay type: organism-based; settings: in vivo
[28] = AUC (0 to infinity) in Sprague-Dawley rat at 2 mg/kg, iv by LCMS analysis; assay type: ADME, organism-based; parameters: dose 2 mg/kg, time infinity, route intravenous; settings: in vivo
[29] = Antitumor activity against human Bel7404 cells xenografted in BALB/c nude mouse assessed as tumor volume at 10 mg/kg, ig administered via oral gavage once daily for 14 consecutive days measured on day 1 (reference value: 101.62 +/- 26.48 mm3); assay type: functional, BEL-7404
[30] = Half life in rat microsomes; assay type: ADME, Microsome
[31] = Antitumor activity against human A549 cells xenografted in BALB/c nude mouse assessed as tumor volume at 10 mg/kg, ig administered via oral gavage once daily for 14 consecutive days measured on day 18 (reference value: 3045.91 +/- 854.27 mm3); assay type: functional
[32] = Antitumor activity against human Bel7404 cells xenografted in BALB/c nude mouse assessed as tumor volume at 10 mg/kg, ig administered via oral gavage once daily for 14 consecutive days measured on day 17 (reference value: 747.40 +/- 169.75 mm3); assay type: functional, BEL-7404
[33] = Antitumor activity against human A549 cells xenografted in BALB/c nude mouse assessed as tumor growth inhibition at 10 mg/kg, ig administered via oral gavage once daily for 14 consecutive days measured on day 30 relative to control; assay type: functional; settings: 720 h, read-out: TGI
[34] = Antitumor activity against human A549 cells xenografted in BALB/c nude mouse assessed as tumor volume at 10 mg/kg, ig administered via oral gavage once daily for 14 consecutive days measured on day 4 (reference value: 419.55 +/- 104.72 mm3); assay type: functional
Mus musculus [35] = test: Toxicity in nude BALB/c mouse xenografted with human A549 cells assessed as body weight at 10 mg/kg, ig administered via oral gavage once daily for 14 consecutive days measured on day 15 (reference value: 27.12 +/- 1.43 g); assay type: organism-based; settings: in vivo
A549 [36] = test: Inhibition of PI3K in human A549 cells assessed as reduction in AKT phosphorylation at threonine308 residues after 30 mins by Western blot analysis; assay type: cell-based
[37] = Cmax in Sprague-Dawley rat at 2 mg/kg, iv by LCMS analysis; assay type: ADME, organism-based; parameters: dose 2 mg/kg, route intravenous; settings: in vivo
[38] = Ratio of Cmax in Sprague-Dawley rat to IC50 for human A549 cells
Mus musculus [39] = test: Toxicity in nude BALB/c mouse xenografted with human A549 cells assessed as body weight at 10 mg/kg, ig administered via oral gavage once daily for 14 consecutive days measured on day 8 (reference value: 25.66 +/- 1.04 g); assay type: organism-based; settings: in vivo
Mus musculus [40] = test: Toxicity in nude BALB/c mouse xenografted with human A549 cells assessed as mortality at 10 mg/kg, ig administered via oral gavage once daily for 14 consecutive days measured on day 30; assay type: organism-based; settings: in vivo
Mus musculus [41] = test: Toxicity in nude BALB/c mouse xenografted with human A549 cells assessed as body weight at 10 mg/kg, ig administered via oral gavage once daily for 14 consecutive days measured on day 18 (reference value: 27.75 +/- 1.41 g); assay type: organism-based; settings: in vivo
[42] = Antitumor activity against human Bel7404 cells xenografted in BALB/c nude mouse assessed as tumor volume at 10 mg/kg, ig administered via oral gavage once daily for 14 consecutive days measured on day 14 (reference value: 589.54 +/- 162.22 mm3); assay type: functional, BEL-7404
A549 [43] = test: Antitumor activity against human A549 cells xenografted in BALB/c nude mouse assessed as tumor growth inhibition administered ig via oral gavage once daily for 14 consecutive days measured on day 30; assay type: functional, cell-based

SMILES: CNC(=O)c1cc(Oc2ccc(NC(=O)Nc3ccc(Cl)c(C(F)(F)F)c3)cc2)ccn1 [SORAFENIB]
- Activity [1]: 257.88 mm3
- Activity [2]: 334.93 mm3
- Activity [3]: 136.23 mm3
- Activity [4]: 206.94 mm3
- inhibition in vivo at 50 mg/kg [5]: 43.8%
- Activity [6]: 413.79 mm3
- Activity [7]: 97.11 mm3

SMILES: COc1ncc(-c2ccc3nccc(-c4ccc(CN(C)C)cc4)c3c2)cc1NS(=O)(=O)c1ccc(F)cc1F
- inhibition in vivo at 10 mg/kg [8]: 70.6%
- Activity [9]: 330.06 mm3
- half-life [10]: 4.41 h
- Activity (Mus musculus [11]): 25.13 g
- Activity [12]: 152.31 mm3
- inhibition (A549 [13]): Dose-dependent effect
- AUC(0-inf) [14]: 35.6 µg·h/mL
- IC50 [15]: 4.4 nM
- Activity (Mus musculus [16]): 24.17 g
- Activity [17]: 123.3 mm3
- Activity [18]: 149.23 mm3
- Activity [19]: 135.38 mm3
- bioavailability [20]: 95%
- Cmax [21]: 7.12 µg/mL
- Activity [22]: 432.38 mm3
- Activity [23]: 536.2 mm3
- RatioGI50 [24]: 2
- RatioGI50 [25]: 2
- IC50 (cells): 3 nM
- Time [26]: 0.5 h
- Activity (Mus musculus [27]): 23.77 g
- AUC(0-inf) [28]: 3.74 µg·h/mL
- Activity [29]: 90.39 mm3
- half-life [30]: 0.767 h
- Activity [31]: 748.11 mm3
- Activity [32]: 220.21 mm3
- inhibition in vivo at 10 mg/kg [33]: 73.5%
- Activity [34]: 224.6 mm3
- Activity (Mus musculus [35]): 23.42 g
- inhibition (A549 [36]): Dose-dependent effect
- Cmax [37]: 1 µg/mL
- Ratio [38]: >2800
- Activity (Mus musculus [39]): 24.23 g
- Activity (Mus musculus [40]): Non-Toxic
- Activity (Mus musculus [41]): 23.92 g
- Activity [42]: 187.5 mm3
- TGI (A549 [43]): Dose-dependent effect
